For series [1], the species on record is Rattus norvegicus. Put plainly: Inhibition of Sprague-Dawley rat liver mitochondrial aldehyde dehydrogenase at 1 mM measured immediately after compound addition at 38 degC in presence of 0.25 M sucrose relative to control.
For series [2], the species on record is Rattus norvegicus. Put plainly: Inhibition of Sprague-Dawley rat liver mitochondrial aldehyde dehydrogenase assessed as complete inhibition at 1 mM measured after 5 to 10 mins at 38 degC in presence of 0.25 M sucrose.
Series [3] is filed under the species Rattus norvegicus. Put plainly: Inhibition of Sprague-Dawley rat liver mitochondrial aldehyde dehydrogenase at 1 mM after 5 mins at 25 degC in presence of 0.25 M sucrose relative to control.
For series [4], the species on record is Rattus norvegicus. Briefly: Inhibition of Sprague-Dawley rat liver mitochondrial aldehyde dehydrogenase at 1 mM after 5 mins at 0 degC in presence of 0.25 M sucrose relative to control.
For series [5], the species on record is Rattus norvegicus. Briefly: Irreversible inhibition of Sprague-Dawley rat liver mitochondrial aldehyde dehydrogenase at 1 mM incubated for 10 mins at 38 degC in presence of 0.25 M sucrose followed by compound washout measured relative to control.
Series [6] is filed under the species Rattus norvegicus. Put plainly: Inhibition of Sprague-Dawley rat liver mitochondrial aldehyde dehydrogenase at 1 mM at 38 degC in presence of 0.25 M sucrose relative to control. As to conditions: TDE = time-dependent effect.
The subject of series [7] is Liver microsome. Put plainly: Drug level in Sprague-Dawley rat liver microsomes treated with phenobarbital by GC-MS analysis in presence of NADPH. Format: ADME.
Series [8] is filed under the species Rattus norvegicus. Briefly: Induction of ethanol-derived blood acetaldehyde level in 0.1% phenobarbital for 8 days pretreated Sprague-Dawley rat measured after 2 hrs of acute ethanol dose. Type of series: functional, organism-based.

The results in this text go back to ChEMBL document CHEMBL3228041, “Propiolaldehyde, a pargyline metabolite that irreversibly inhibits aldehyde dehydrogenase. Isolation from a hepatic microsomal system” (J Med Chem, 1979).

The source made the active and inactive calls. The calls are words filed in the database; no cut-off is given here.

The term inhibition denotes the percentage by which the read-out fell short of the control. In the case of `C#CC=O` [PROPYNAL], the inhibition is 43% in series [1], 45% in series [3], 32% in series [4] and “tde” in series [6]. Moreover, the inhibition result in series [2] and in series [5] was “Active” in each case. Moreover, the Drug metabolism entry in series [7] is listed as “metabolite_detected”.
Regarding `C#CCN(C)Cc1ccccc1`, the result in series [8] was Active.
